# Laboratory results reported in patent US20260008775A1, “AZOLE MODULATORS OF CHOLESTEROL BIOSYNTHESIS AND THEIR USE FOR PROMOTING REMYELINATION” (GENENTECH, INC., priority 2022, published 2026).
# How the values were obtained:
# [1] = target: human emopamil binding protein and human 7-dehydrocholesterol reductase (hEBP-DHCR7) (Homo sapiens (Human), UniProt Q15125); assay: hEBP-DHCR7 radioligand binding assay (filter binding, membranes of co-expressing HEK293 cells); details: for Ki: competition with [3H] radioligand, 8 doses 0.06 to 5000 nM, Ki calculated from IC50
# Method in brief: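 Membranes from HEK293 cells transiently co-expressing hEBP and DHCR7 (10 μg/well) were incubated for 3 h at 22 °C with tritiated spiro-sulfone radioligand (added at 25 nM) and compound at 1 μM or 0.06–5000 nM. Filtration and scintillation counting followed. Inhibition was normalised to 5 μM unlabelled ligand and DMSO, and Ki was derived as IC50/(1+[L]/Kd).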
# [2] = test system: zymostenol accumulation (EBP) in EpiSC-derived OPCs; assay: GC/MS-based sterol profiling, zymostenol accumulation in EpiSC-derived OPCs; format: cell-based, mouse; details: for EC50: Mus musculus, 24 h, EpiSC-derived OPCs, 24 hr, 8 doses from 0.15 nM to 333 nM, read-out: Mouse Zymostenol GCMS EC50
# Method in brief: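 Mouse epiblast stem cell-derived OPCs plated at 100,000 cells/well in growth-factor-free N2B27 and treated 24 h. Sterols extracted by modified Folch wash, silylated with BSTFA, and quantified by electron-impact GC/MS against cholesterol-d7 (zymostenol ion 458). Zymostenol normalised to 24 h 100 nM positive-control reference.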
# EpiSC-derived OPCs = assay: In vitro phenotypic screening of OPCs, MBP high-content imaging (percentage of oligodendrocytes); format: cell-based, mouse; details: for EC50: Mus musculus, 72 h, 3 days, MBP stain, dose-response 0.5 nM to 1000 nM, read-out: OPC EC50
# Method in brief: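 Mouse epiblast stem cell-derived OPCs were plated without growth factors and given 8-point doses (1000 nM to 0.5 nM, 0.1% DMSO final) for 3 days at 37 °C. MBP/DAPI immunostaining and high-content imaging gave the percentage of oligodendrocytes. EC50 came from a Hill-equation fit.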
# human emopamil binding protein and human 7-dehydrocholesterol reductase (hEBP-DHCR7), sequence (Q15125 whole entry): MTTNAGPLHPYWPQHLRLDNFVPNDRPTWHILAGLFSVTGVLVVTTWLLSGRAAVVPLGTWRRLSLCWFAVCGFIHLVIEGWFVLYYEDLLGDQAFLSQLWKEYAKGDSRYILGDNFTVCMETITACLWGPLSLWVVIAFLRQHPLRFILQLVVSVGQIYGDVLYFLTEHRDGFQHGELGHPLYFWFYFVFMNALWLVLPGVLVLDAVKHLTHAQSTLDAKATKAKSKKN
SMILES,Ki [1],EC50 [2],EC50 (EpiSC-derived OPCs),fold decrease in EBP inhibition ([1]; as compared to compound 202 (no amine group on Ring B)),fold decrease in activity in the mouse zymostenol assay ([2]; as compared to compound 202),fold decrease in activity in the OPC assay (EpiSC-derived OPCs; as compared to compound 202)
"CC(C)n1nc(-c2cccc(C#N)c2)cc1[C@H]1[C@@H]2C[C@@H](N3CCCOCC3)C[C@@H]21 [Compound 192*, 3-(5-((1R,3s,5S,6r)-3-(1,4-oxazepan-4-yl)bicyclo[3.1.0]hexan-6-yl)-1-isopropyl-1H-pyrazol-3-yl)benzonitrile]",12.6 nM,22.7 nM,61.6 nM,–,–,–
"CC(C)n1nc(-c2cccc(OC(F)F)c2)cc1[C@H]1[C@@H]2C[C@H](N3CCCOCC3)C[C@@H]21 (single isomer, unassigned) [Compound 199*]",8.2 nM,2.06 nM,4.01 nM,–,–,–
"CC(C)n1nc(-c2ccc(OC(F)F)cc2)cc1[C@H]1[C@@H]2C[C@H](N3CCCOCC3)C[C@@H]21 (single isomer, unassigned) [Compound 201*]",11 nM,8.23 nM,24.5 nM,–,–,–
"CC(C)n1nc(-c2cncc(C(F)(F)F)n2)cc1[C@H]1[C@@H]2C[C@@H](N3CCOCC3)C[C@@H]21 [Compound 107, 4-((1R,3s,5S,6r)-6-(1-Isopropyl-3-(6-(trifluoromethyl)pyrazin-2-yl)-1H-pyrazol-5-yl)bicyclo[3.1.0]hexan-3-yl)morpholine]",11.7 nM,4.86 nM,30.8 nM,–,–,–
"CC(C)n1nc(-c2cccc(C(F)(F)F)c2)nc1[C@H]1[C@@H]2C[C@H](N3CCOC[C@@H]3C)C[C@@H]21 [Compound 67, (S)-4-((1R,3s,5S,6S)-6-(1-Isopropyl-3-(3-(trifluoromethyl)phenyl)-1H-1,2,4-triazol-5-yl)bicyclo[3.1.0]hexan-3-yl)-3-methylmorpholine]",50 nM,66.5 nM,233 nM,–,–,–
"CC(C)n1nc(-c2cncc(C(F)(F)F)c2)nc1[C@H]1[C@@H]2C[C@@H](N3CCO[C@H](C)C3)C[C@@H]21 [Compound 162, (R)-4-((1R,3s,5S,6R)-6-(1-Isopropyl-3-(5-(trifluoromethyl)pyridin-3-yl)-1H-1,2,4-triazol-5-yl)bicyclo[3.1.0]hexan-3-yl)-2-methylmorpholine]",838 nM,371 nM,838 nM,–,–,–
"CC(C)n1nc(-c2cncc(C(F)(F)F)c2)cc1[C@@H]1CC[C@@H](N2CCCOCC2)C1 (single isomer, unassigned) [65*]",28.2 nM,16.2 nM,103 nM,–,–,–
"CC(C)n1nc(-c2cncc(C(F)(F)F)c2)cc1[C@@H]1CC[C@H](N2CCOCC2)C1 (single isomer, unassigned) [61*]",69.1 nM,21.9 nM,102 nM,–,–,–
"FC(F)(F)c1cccc(-c2nc([C@H]3CC[C@H](N4CCCOCC4)C3)n(C3CC3)n2)n1 (single isomer, unassigned) [9*]",113 nM,21.4 nM,73.4 nM,–,–,–
"CC(C)n1nc(-c2cnc(C(F)(F)F)nc2)cc1[C@H]1[C@@H]2C[C@H](N3CCOC[C@H]3C)C[C@@H]21 [Compound 97, (R)-4-((1R,3r,5S,6R)-6-(1-Isopropyl-3-(2-(trifluoromethyl)pyrimidin-5-yl)-1H-pyrazol-5-yl)bicyclo[3.1.0]hexan-3-yl)-3-methylmorpholine]",15.1 nM,3.87 nM,11.4 nM,–,–,–
"CC(C)n1nc(-c2cccc(OC(F)F)c2)cc1[C@H]1[C@@H]2C[C@@H](N3CCCOCC3)C[C@@H]21 (single isomer, unassigned) [Compound 200*]",11.6 nM,13.7 nM,36.7 nM,–,–,–
"CC(C)n1nc(-c2cncc(C(F)(F)F)c2)cc1[C@H]1[C@@H]2C[C@@H](N3CCO[C@H](C)C3)C[C@@H]21 (single isomer, unassigned) [40*]",111 nM,78 nM,325 nM,–,–,–
"CC(C)n1nc(-c2cncc(C(F)(F)F)c2)cc1[C@H]1CC[C@H](N2CCOCC2)C1 (single isomer, unassigned) [58*]",26.2 nM,25.1 nM,138 nM,–,–,–
"CC(C)n1nc(-c2cccc(C(F)(F)F)n2)cc1[C@H]1[C@@H]2C[C@@H](N3CCCOCC3)C[C@@H]21 [Compound 49, 4-((1R,3s,5S,6r)-6-(1-Isopropyl-3-(6-(trifluoromethyl)pyridin-2-yl)-1H-pyrazol-5-yl)bicyclo[3.1.0]hexan-3-yl)-1,4-oxazepane]",53 nM,42 nM,75 nM,–,–,–
"CC(C)n1nc(-c2cccc(C(F)(F)F)n2)cc1[C@H]1[C@@H]2C[C@H](N3CCOCC3)C[C@@H]21 [Compound 32, 4-((1R,3r,5S,6r)-6-(1-isopropyl-3-(6-(trifluoromethyl)pyridin-2-yl)-1H-pyrazol-5-yl)bicyclo[3.1.0]hexan-3-yl)morpholine]",34.5 nM,52 nM,354 nM,–,–,–
"CC(C)n1nc(-c2cncc(C(F)(F)F)c2)cc1[C@H]1[C@@H]2C[C@H](N3C[C@H]4C[C@@H]3CO4)C[C@@H]21 (single isomer, unassigned) [37*]",33 nM,18 nM,98 nM,–,–,–
"CC(C)n1nc(-c2cccc(F)c2)cc1[C@H]1[C@@H]2C[C@H](N3CCCOCC3)C[C@@H]21 [Compound 195*, 4-((1R,3r,5S,6r)-6-(3-(3-Fluorophenyl)-1-isopropyl-1H-pyrazol-5-yl)bicyclo[3.1.0]hexan-3-yl)-1,4-oxazepane]",12.7 nM,2.42 nM,7.49 nM,–,–,–
"CC[C@@H]1CN([C@H]2CC[C@@H](c3nc(-c4cnc(C(F)(F)F)nc4)nn3C(C)C)C2)CCO1 [Compound 152, (R)-2-Ethyl-4-((1S,3R)-3-(1-isopropyl-3-(2-(trifluoromethyl)pyrimidin-5-yl)-1H-1,2,4-triazol-5-yl)cyclopentyl)morpholine]",3420 nM,2.14 nM,17 nM,–,–,–
"CC(C)n1nc(-c2ccc(C(F)(F)F)cc2)cc1[C@H]1[C@@H]2C[C@H](N3CCCOCC3)C[C@@H]21 [Compound 181*, 4-((1R,3r,5S,6r)-6-(1-Isopropyl-3-(4-(trifluoromethyl)phenyl)-1H-pyrazol-5-yl)bicyclo[3.1.0]hexan-3-yl)-1,4-oxazepane]",10.1 nM,7 nM,12.4 nM,–,–,–
"FC(F)(F)c1cccc(-c2nc([C@H]3CC[C@@H](N4CCCOCC4)C3)n(C3CC3)n2)n1 (single isomer, unassigned) [10*]",95.8 nM,18 nM,54.2 nM,–,–,–
"CC(C)n1nc(-c2cnc(N)c(C(F)(F)F)c2)cc1[C@H]1[C@@H]2C[C@@H](N3CCOCC3)C[C@@H]21 [Compound A, reference compound]",3670 nM,1400 nM,3000 nM,19.5 fold,5.9 fold,4.1 fold
"CC(C)n1nc(-c2cccc(F)c2)cc1[C@H]1[C@@H]2C[C@@H](N3CCCOCC3)C[C@@H]21 [Compound 196*, 4-((1R,3s,5S,6r)-6-(3-(3-fluorophenyl)-1-isopropyl-1H-pyrazol-5-yl)bicyclo[3.1.0]hexan-3-yl)-1,4-oxazepane]",12.7 nM,13.3 nM,46.2 nM,–,–,–
"CC(C)n1nc(-c2cncc(C(F)(F)F)c2)cc1[C@H]1CC[C@@H](N2CCOCC2)C1 (single isomer, unassigned) [60*]",19.2 nM,5.52 nM,36.2 nM,–,–,–
"CC(C)n1nc(-c2cccc(C(F)(F)F)c2)cc1[C@H]1[C@@H]2C[C@@H](N3CCCOCC3)C[C@@H]21 [Compound 175*, 4-((1R,3r,5S,6r)-6-(1-Isopropyl-3-(3-(trifluoromethyl)phenyl)-1H-pyrazol-5-yl)bicyclo[3.1.0]hexan-3-yl)-1,4-oxazepane]",14.2 nM,5.46 nM,11.3 nM,–,–,–
"CC(C)n1nc(-c2cccc(C(F)(F)F)c2)cc1[C@H]1[C@@H]2C[C@H](N3CCOCC3)C[C@@H]21 [Compound 170, 4-((1R,3r,5S,6r)-6-(1-Isopropyl-3-(3-(trifluoromethyl)phenyl)-1H-pyrazol-5-yl)bicyclo[3.1.0]hexan-3-yl)morpholine]",6.87 nM,2.98 nM,5.33 nM,–,–,–
"CC(C)n1nc(-c2cncc(C(F)(F)F)c2)cc1[C@H]1[C@@H]2C[C@H](N3CCOC(C)(C)C3)C[C@@H]21 [Compound 34, 4-((1R,3r,5S,6r)-6-(1-isopropyl-3-(5-(trifluoromethyl)pyridin-3-yl)-1H-pyrazol-5-yl)bicyclo[3.1.0]hexan-3-yl)-2,2-dimethylmorpholine]",34.5 nM,52 nM,354 nM,–,–,–
"CC[C@H]1CN([C@@H]2CC[C@H](c3nc(-c4cnc(C(F)(F)F)nc4)nn3C(C)C)C2)CCO1 (single isomer, unassigned) [Compound 110*]",14.8 nM,2.48 nM,13.9 nM,–,–,–
"CCn1nc(-c2ccc(C(F)(F)F)nc2)nc1[C@H]1CC[C@@H](N2CCCOCC2)CC1 [7*, 4-((1s,4s)-4-(1-ethyl-3-(6-(trifluoromethyl)pyridin-3-yl)-1H-1,2,4-triazol-5-yl)cyclohexyl)-1,4-oxazepane]",135 nM,26.3 nM,158 nM,–,–,–
